These results are taken from patent US9109004B2, “Progesterone receptor antagonists” (Bayer Intellectual Property GmbH, priority 2010, dated 2015).

The experiment addresses T1, human progesterone receptor A (Homo sapiens, UniProt P06401).
T1 construct: expressed in transfected cells; host or cells: SK-N-MC human neuroblastoma cells, stably transfected
T1 sequence (P06401 1-769 isoform P06401-2): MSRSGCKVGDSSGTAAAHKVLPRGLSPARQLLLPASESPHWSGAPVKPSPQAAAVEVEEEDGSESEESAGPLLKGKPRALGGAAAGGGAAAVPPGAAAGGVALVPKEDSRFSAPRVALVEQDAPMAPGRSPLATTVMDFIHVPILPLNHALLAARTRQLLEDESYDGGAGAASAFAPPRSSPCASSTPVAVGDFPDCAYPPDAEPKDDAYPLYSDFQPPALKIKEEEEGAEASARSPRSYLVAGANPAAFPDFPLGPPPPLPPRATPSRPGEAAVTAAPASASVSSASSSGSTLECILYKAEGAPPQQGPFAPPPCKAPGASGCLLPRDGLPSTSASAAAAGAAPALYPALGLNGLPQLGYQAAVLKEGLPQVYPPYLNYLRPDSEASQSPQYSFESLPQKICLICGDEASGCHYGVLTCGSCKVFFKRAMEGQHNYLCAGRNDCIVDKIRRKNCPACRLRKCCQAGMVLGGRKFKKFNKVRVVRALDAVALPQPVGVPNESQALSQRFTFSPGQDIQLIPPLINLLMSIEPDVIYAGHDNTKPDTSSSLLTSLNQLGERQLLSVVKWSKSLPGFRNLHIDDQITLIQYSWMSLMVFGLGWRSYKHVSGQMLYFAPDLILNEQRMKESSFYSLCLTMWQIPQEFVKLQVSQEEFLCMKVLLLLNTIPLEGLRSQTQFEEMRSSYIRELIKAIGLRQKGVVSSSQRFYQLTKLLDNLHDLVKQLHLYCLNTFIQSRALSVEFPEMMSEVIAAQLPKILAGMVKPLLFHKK
Briefly: Progesterone-receptor-antagonistic action in stably transfected SK-N-MC cells, MTV-LUC reporter (PR-A). Type of experiment: cell-based. Particulars: antagonistic potency vs 0.1 nmol/l promegestone, 24 hours, luciferase. Here is the method:
Progesterone-Receptor-Antagonistic Action in Stable Transfectants of Human Neuroblastoma Cells (SK-N-MC Cells) with the Human Progesterone A or Progesterone B Receptor and an MTV-LUC Reporter Construct
SK-N-MC cells (human neuroblastoma cells) that have been stably transfected with plasmids that express the human progesterone receptor B (pRChPR-B-neo) or the human progesterone receptor A (pRChPR-A-neo) and a reporter construct (pMMTV-LUC), were incubated for 24 hours either in the absence (negative control) or in the presence of increasing amounts of the particular test compound (0.01 nmol/l, 0.1 nmol/l, 1 nmol/l, 10 nmol/l, 100 nmol/l and 1 μmol/l), to determine the agonistic efficacy. As positive control of reporter gene induction, the cells were treated with the synthetic gestagen promegestone (0.01 nmol/l, 0.1 nmol/l, 1 nmol/l, 10 nmol/l, 100 nmol/l and 1 μmol/l). For determination of the antagonistic activity, the cells were treated with 0.1 nmol/l promegestone and additionally with increasing amounts of the particular test compound (0.01 nmol/l, 0.1 nmol/l, 1 nmol/l, 10 nmol/l, 100 nmol/l and 1 μmol/l). The activity of the reporter gene LUC (LUC=luciferase) was determined in the cell lysates and was measured as RLU (relative light units). All measured values are given as % efficacy and as EC50 or IC50 concentrations.
In the case of `C[C@]12C[C@H](c3ccc(C(=O)Nc4ccccn4)cc3)C3=C4CCC(=O)C=C4CC[C@H]3[C@@H]1CC[C@@]2(O)C(F)(F)C(F)(F)F` [Example 11, 4-[(11β,17β)-17-hydroxy-3-oxo-17-(pentafluoroethyl)estra-4,9-dien-11-yl]-N-(pyridin-2-yl)benzamide], half-maximal inhibition (IC50) required 10 nM.
The value for `C[C@]12C[C@H](c3ccc(C(=O)Nc4cccnc4)cc3)C3=C4CCC(=O)C=C4CC[C@H]3[C@@H]1CC[C@@]2(O)C(F)(F)C(F)(F)F` [Example 12, 4-[(11β,17β)-17-hydroxy-3-oxo-17-(pentafluoroethyl)estra-4,9-dien-11-yl]-N-(pyridin-3-yl)benzamide] was 1.32 nM; that for `C[C@]12C[C@H](c3ccc(C(=O)NCCCN4CCOCC4)cc3)C3=C4CCC(=O)C=C4CC[C@H]3[C@@H]1CC[C@@]2(O)C(F)(F)C(F)(F)F` [Example 13, 4-[(11β,17β)-17-hydroxy-3-oxo-17-(pentafluoroethyl)estra-4,9-dien-11-yl]-N-[3-(morpholin-4-yl)propyl]benzamide] was 24 nM.
The value for `C[C@]12C[C@H](c3ccc(C(=O)Nc4ccncc4)cc3)C3=C4CCC(=O)C=C4CC[C@H]3[C@@H]1CC[C@@]2(O)C(F)(F)C(F)(F)F` [Example 14, 4-[(11β,17β)-17-hydroxy-3-oxo-17-(pentafluoroethyl)estra-4,9-dien-11-yl]-N-(pyridin-4-yl)benzamide] was 0.42 nM; that for `C[C@]12C[C@H](c3ccc(C(=O)N4CCCC4)cc3)C3=C4CCC(=O)C=C4CC[C@H]3[C@@H]1CC[C@@]2(O)C(F)(F)C(F)(F)F` [Example 15, (11β,17β)-17-hydroxy-17-(pentafluoroethyl)-11-[4-(pyrrolidin-1-ylcarbonyl)phenyl]estra-4,9-dien-3-one] was 38 nM.
On to `C[C@]12C[C@H](c3ccc(C(=O)NCCc4ccccc4)cc3)C3=C4CCC(=O)C=C4CC[C@H]3[C@@H]1CC[C@@]2(O)C(F)(F)C(F)(F)F` [Example 16, 4-[(11β,17β)-17-hydroxy-3-oxo-17-(pentafluoroethyl)estra-4,9-dien-11-yl]-N-(2-phenylethyl)benzamide], for which the IC50 – broadly, the concentration needed to halve the response being measured – came to 0.67 nM.
The compound `CC(C)(NC(=O)c1ccc([C@H]2C[C@@]3(C)[C@@H](CC[C@@]3(O)C(F)(F)C(F)(F)F)[C@@H]3CCC4=CC(=O)CCC4=C32)cc1)c1ccccc1` [Example 17, 4-[(11β,17β)-17-hydroxy-3-oxo-17-(pentafluoroethyl)estra-4,9-dien-11-yl]-N-(2-phenylpropan-2-yl)benzamide] returned an IC50 of 0.21 nM.
In turn, `C[C@]12C[C@H](c3ccc(C(=O)NCc4ccc(S(N)(=O)=O)cc4)cc3)C3=C4CCC(=O)C=C4CC[C@H]3[C@@H]1CC[C@@]2(O)C(F)(F)C(F)(F)F` [Example 18, 4-[(11β,17β)-17-hydroxy-3-oxo-17-(pentafluoroethyl)estra-4,9-dien-11-yl]-N-(4-sulphamoylbenzyl)benzamide] came in with an IC50 of 4.7 nM.
The value for `CCNC(=O)c1ccc([C@H]2C[C@@]3(C)[C@@H](CC[C@@]3(O)C(F)(F)C(F)(F)F)[C@@H]3CCC4=CC(=O)CCC4=C32)cc1` [Example 19, N-ethyl-4-[(11β,17β)-17-hydroxy-3-oxo-17-(pentafluoroethyl)estra-4,9-dien-11-yl]benzamide] was 1.4 nM; that for `C[C@]12C[C@H](c3ccc(C(=O)NCc4ccccn4)cc3)C3=C4CCC(=O)C=C4CC[C@H]3[C@@H]1CC[C@@]2(O)C(F)(F)C(F)(F)F` [Example 20, 4-[(11β,17β)-17-hydroxy-3-oxo-17-(pentafluoroethyl)estra-4,9-dien-11-yl]-N-(pyridin-2-ylmethyl)benzamide] was 3.8 nM.
Then `C[C@]12C[C@H](c3ccc(C(=O)NCc4ccncc4)cc3)C3=C4CCC(=O)C=C4CC[C@H]3[C@@H]1CC[C@@]2(O)C(F)(F)C(F)(F)F` [Example 21, 4-[(11β,17β)-17-hydroxy-3-oxo-17-(pentafluoroethyl)estra-4,9-dien-11-yl]-N-(pyridin-4-ylmethyl)benzamide], with 51 nM; and `C[C@]12C[C@H](c3ccc(C(=O)Nc4ccccc4)cc3)C3=C4CCC(=O)C=C4CC[C@H]3[C@@H]1CC[C@@]2(O)C(F)(F)C(F)(F)F` [Example 22, 4-[(11β,17β)-17-hydroxy-3-oxo-17-(pentafluoroethyl)estra-4,9-dien-11-yl]-N-phenylbenzamide], with 39 nM.
Then `COc1ccccc1NC(=O)c1ccc([C@H]2C[C@@]3(C)[C@@H](CC[C@@]3(O)C(F)(F)C(F)(F)F)[C@@H]3CCC4=CC(=O)CCC4=C32)cc1` [Example 23, 4-[(11β,17β)-17-hydroxy-3-oxo-17-(pentafluoroethyl)estra-4,9-dien-11-yl]-N-(2-methoxyphenyl)benzamide], with 86 nM; and `COc1cccc(NC(=O)c2ccc([C@H]3C[C@@]4(C)[C@@H](CC[C@@]4(O)C(F)(F)C(F)(F)F)[C@@H]4CCC5=CC(=O)CCC5=C43)cc2)c1` [Example 24, 4-[(11β,17β)-17-hydroxy-3-oxo-17-(pentafluoroethyl)estra-4,9-dien-11-yl]-N-(3-methoxyphenyl)benzamide], with 3.7 nM.
`COc1ccc(NC(=O)c2ccc([C@H]3C[C@@]4(C)[C@@H](CC[C@@]4(O)C(F)(F)C(F)(F)F)[C@@H]4CCC5=CC(=O)CCC5=C43)cc2)cc1` [Example 25, 4-[(11β,17β)-17-hydroxy-3-oxo-17-(pentafluoroethyl)estra-4,9-dien-11-yl]-N-(4-methoxyphenyl)benzamide] yielded an IC50 of 11.4 nM. This IC50 is about 3.1-fold higher than that of the compound before.
Regarding `C[C@]12C[C@H](c3ccc(C(=O)Nc4ccc(Cl)cc4)cc3)C3=C4CCC(=O)C=C4CC[C@H]3[C@@H]1CC[C@@]2(O)C(F)(F)C(F)(F)F` [Example 26, N-(4-chlorophenyl)-4-[(11β,17β)-17-hydroxy-3-oxo-17-(pentafluoroethyl)estra-4,9-dien-11-yl]benzamide], the IC50 worked out at 28 nM.
Consider `CCN(CC)C(=O)c1ccc([C@H]2C[C@@]3(C)[C@@H](CC[C@@]3(O)C(F)(F)C(F)(F)F)[C@@H]3CCC4=CC(=O)CCC4=C32)cc1` [Example 27, N,N-diethyl-4-[(11β,17β)-17-hydroxy-3-oxo-17-(pentafluoroethyl)estra-4,9-dien-11-yl]benzamide], for which half-maximal inhibition (IC50) was put at 133 nM.
Then `CN(C(=O)c1ccc([C@H]2C[C@@]3(C)[C@@H](CC[C@@]3(O)C(F)(F)C(F)(F)F)[C@@H]3CCC4=CC(=O)CCC4=C32)cc1)c1ccccc1` [Example 28, 4-[(11β,17β)-17-hydroxy-3-oxo-17-(pentafluoroethyl)estra-4,9-dien-11-yl]-N-methyl-N-phenylbenzamide], with 63 nM; and `C[C@]12C[C@H](c3ccc(C(=O)N4CCOCC4)cc3)C3=C4CCC(=O)C=C4CC[C@H]3[C@@H]1CC[C@@]2(O)C(F)(F)C(F)(F)F` [Example 29, (11β,17β)-17-hydroxy-11-[4-(morpholin-4-ylcarbonyl)phenyl]-17-(pentafluoroethyl)estra-4,9-dien-3-one], with 39 nM; and `C[C@]12C[C@H](c3ccc(C(=O)N4CCN(c5ccccc5)CC4)cc3)C3=C4CCC(=O)C=C4CC[C@H]3[C@@H]1CC[C@@]2(O)C(F)(F)C(F)(F)F` [Example 30, (11β,17β)-17-hydroxy-17-(pentafluoroethyl)-11-{4-[(4-phenylpiperazin-1-yl)carbonyl]phenyl}estra-4,9-dien-3-one], with 7.2 nM.
As to `CN(Cc1ccccn1)C(=O)c1ccc([C@H]2C[C@@]3(C)[C@@H](CC[C@@]3(O)C(F)(F)C(F)(F)F)[C@@H]3CCC4=CC(=O)CCC4=C32)cc1` [Example 31, 4-[(11β,17β)-17-hydroxy-3-oxo-17-(pentafluoroethyl)estra-4,9-dien-11-yl]-N-methyl-N-(pyridin-2-ylmethyl)benzamide], the IC50 was 10.8 nM. Compared with the last compound, the IC50 is about 1.5-fold higher.
